pIC50: −log10 of the molar value. “And” between values parts separate entries of the source, which are not always exact repeats. Identical values can stand only once. Like-named read-outs stand apart in the source and are kept apart here.

The subject of series [1] is parent strain (SAWy518).
The subject of the next series is MCT1. The note with it: cited from earlier work.
The subject of series [2] is parent strain (SAWy518). Description: microbe, parasite or virus in culture. Also noted: species or system Saccharomyces cerevisiae SAWy518; Off-target growth counter-screen, OD600 as per cent of untreated wells, strain lacking MCT1. The settings on record: 18.5 h; sheet Primary Screen - final;; off-target growth of parent strain, about 18 h.
Series [3] relates to parent strain (SAWy518). Description: Off-target control in IC50 determination: growth of light-insensitive parent strain at each inhibitor concentration. The format is cell-based, Saccharomyces cerevisiae. The note with it: at the dosages used in this study.
The conditions of series [4]: cited from earlier work.
A further series relates to cancer cell growth. The settings on record: cited from earlier work.
The next series concerns tumor growth. The note with it: cited from earlier work.
The subject of series [5] is MCT4. The note with it: HAP1 cells, library annotation; cited from earlier work.
Series [6] concerns MCT4. The settings on record: HAP1 cells; NOTES column annotation; cited from earlier work.
The subject of a further series is SAWy710 (EV). Description: High throughput assay validation, empty vector (EV) control strain SAWy710, AZD versus DMSO. The note with it: individual wells 1-16, listed as AZD. The format is cell-based, Saccharomyces cerevisiae.
Another series has as its system Δjen1 EV. Nature of the series: Growth with lactate as sole carbon source, Δjen1 carrying empty vector (EV) control. The format is cell-based, Saccharomyces cerevisiae.
The conditions of series [7]: patients with advanced cancer; dose-limiting toxicity relating to retinopathy at higher concentrations; cited from earlier work.
The next series addresses MCT1 (F360C) (UniProt P36035+P53987, F360C). Description: Growth with lactate as sole carbon source, by4741 Δjen1 expressing MCT1(F360C). The settings on record: for growth curve reading, single replicate / growth curve reading, mean of 4 replicates: Δjen1 MCT1(F360C).
Another series has as its target MCT1 (wildtype) (UniProt P36035+P53987). Description: Growth with lactate as sole carbon source, by4741 Δjen1 expressing wild-type MCT1.

Sequence of MCT1 (F360C) (P36035+P53987 fused P53987:F360C): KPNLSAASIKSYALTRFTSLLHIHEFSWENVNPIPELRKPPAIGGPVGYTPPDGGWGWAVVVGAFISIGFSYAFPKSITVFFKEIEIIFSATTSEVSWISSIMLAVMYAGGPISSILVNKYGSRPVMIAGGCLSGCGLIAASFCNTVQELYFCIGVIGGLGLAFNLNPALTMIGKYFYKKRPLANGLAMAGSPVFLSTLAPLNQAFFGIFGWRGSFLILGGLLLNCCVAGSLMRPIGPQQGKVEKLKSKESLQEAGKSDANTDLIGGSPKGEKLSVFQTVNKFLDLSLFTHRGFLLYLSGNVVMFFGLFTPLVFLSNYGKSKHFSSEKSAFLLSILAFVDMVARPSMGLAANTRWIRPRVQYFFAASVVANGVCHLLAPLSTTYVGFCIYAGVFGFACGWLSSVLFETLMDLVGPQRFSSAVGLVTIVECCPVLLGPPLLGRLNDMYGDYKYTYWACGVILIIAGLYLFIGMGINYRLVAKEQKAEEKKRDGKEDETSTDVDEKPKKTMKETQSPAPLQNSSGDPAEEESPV
Sequence of MCT1 (wildtype) (P36035+P53987 fused): as the sequence (P36035+P53987 fused P53987:F360C) above, with C398F counted along it

Turning to `O=C(CCc1ccc(O)cc1)c1c(O)cc(O)cc1O` [Phloretin], in the series on parent strain (SAWy518) [1], the OffScreen_percentage is 94.4238 percentage, the Offscreen_18hr is recorded as 0.762, the Offscreen_24hr is on record as 0.892 and the Offscreen_42hr came to 0.9541. Besides, in the series on parent strain (SAWy518) [1], the Read_percentage was determined as 94.4238 percentage. In the series with MCT1 (NOTES/Group column, library annotation, ref not given), the MCT1 inhibitor annotation result is “MCT1 inhibitor”. For the same molecule, the viability at 10 µM in the series on parent strain (SAWy518) [2] came out at 94.4%.

As for `CC(C(=O)O)c1cccc(C(=O)c2ccccc2)c1` (stereo not shown) [Ketoprofen], in the series on parent strain (SAWy518) [3], the off-target toxicity result was “do not exhibit off-target toxicity”.

In the case of `CN1C(C(=O)Nc2ccccn2)=C(O)c2ccccc2S1(=O)=O` [Piroxicam, reference compound], in the series on parent strain (SAWy518) [1], the OffScreen_percentage worked out at 95.2292 percentage; the Offscreen_18hr was 0.7685 and 0.7781; the Offscreen_24hr was 0.8625 and 0.86; the Offscreen_42hr is 0.9267 and 0.9178. Moreover, the Read_percentage in the series on parent strain (SAWy518) [1] is recorded as 95.2292 percentage. For the same molecule, in series [4] (20 mg/day), the blood-plasma concentration is 16 to 20 µM. Further, in the series with cancer cell growth, the “concentrations of in vitro anticancer activity” value was 25 to 30 µM.

As for `CC1=C(CC(=O)O)c2cc(F)ccc2/C1=C\c1ccc([S+](C)[O-])cc1` (stereo not shown) [Sulindac, reference compound], in the series with parent strain (SAWy518) [3], the off-target toxicity result is on record as “do not exhibit off-target toxicity”. Also, in the series on parent strain (SAWy518) [1], the OffScreen_percentage stood at 103.073 percentage, the Offscreen_18hr turned out to be 0.8318, the Offscreen_24hr worked out at 0.9131 and the Offscreen_42hr was 0.9739. In the series with parent strain (SAWy518) [1], the Read_percentage was 103.073.

In the case of `CCOC(=O)Oc1c(OC)cc(C(=O)O[C@@H]2C[C@@H]3CN4CCc5c([nH]c6cc(OC)ccc56)[C@H]4C[C@@H]3[C@H](C(=O)OC)[C@H]2OC)cc1OC` [Syrosingopine], in the series on parent strain (SAWy518) [1], the OffScreen_percentage is recorded as 92.2553 percentage, the Offscreen_18hr is given as 0.7445, the Offscreen_24hr was determined as 0.7958 and the Offscreen_42hr is listed as 0.9268. In addition, the Read_percentage with parent strain (SAWy518) [1] worked out at 92.2553. For the same molecule, the pIC50 with MCT1 (HAP1 cells, library annotation, read-out: IC50 MCT1) is 5.60. In addition, the “in vitro cancer cell growth” value in the series on cancer cell growth (10 μM, administered alone) is given as “inhibit in vitro cancer cell growth”. Further, the “tumor growth in in vivo cancer models” value in the series on tumor growth (alone versus paired with metformin) is “only effective in reducing tumor growth when paired with the mitochondrial oxidative phosphorylation inhibitor metformin”. For the same molecule, in the series on tumor growth (mice), the “dose required to inhibit tumor growth in mice” value is 7.5 mg/kg. In addition, in the series with MCT4 [5], the pIC50 is 7.40. Further, the pIC50 with MCT4 [6] is 7.40. The viability at 10 µM in the series with parent strain (SAWy518) [2] was found to be 92.3%.

Turning to `Cc1[nH]nc(C(F)(F)F)c1Cc1sc2c(c1C(=O)N1C[C@](C)(O)CO1)c(=O)n(C)c(=O)n2C(C)C` [AZD3965], the OD600 with SAWy710 (EV) (Condition non, Replicate1, EV strain SAWy710, 10 µM AZD) is 0.1411 and 0.1378 and 0.134 and 0.1369 and 0.1383 and 0.1317 and 0.135 and 0.1363 and 0.1403 and 0.1392 and 0.1365 and 0.1389 and 0.1394 and 0.149; in the series on SAWy710 (EV) (Condition non, Replicate2, EV strain SAWy710, 10 µM AZD), 0.1384 and 0.1406 and 0.1366 and 0.135 and 0.1021 and 0.1315 and 0.1407 and 0.1329 and 0.1336 and 0.1393 and 0.1343 and 0.134 and 0.138 and 0.1378 and 0.1431; in the series with SAWy710 (EV) (Condition perm, Replicate1, EV strain SAWy710, 10 µM AZD), 0.7718 and 0.7777 and 0.7776 and 0.7734 and 0.7269 and 0.7398 and 0.7671 and 0.7655 and 0.7645 and 0.774 and 0.768 and 0.7629 and 0.759 and 0.7698 and 0.7556 and 0.7591; in the series with SAWy710 (EV) (Condition perm, Replicate2, EV strain SAWy710, 10 µM AZD), 0.1774 and 0.1728 and 0.1654 and 0.1606 and 0.1374 and 0.1596 and 0.1712 and 0.1673 and 0.1713 and 0.168 and 0.1743 and 0.17 and 0.1727 and 0.1704 and 0.1842. Besides, the “growth curve reading, single replicate” value with Δjen1 EV (T1, time 19) is 0.1091 and 0.1160 and 0.1215 and 0.1310; with Δjen1 EV (T2, time 21), 0.1392 and 0.1432 and 0.1501; with Δjen1 EV (T3, time 25), 0.1257 and 0.1403 and 0.1504; with Δjen1 EV (T4, time 27.5), 0.1322 and 0.1452 and 0.1564 and 0.1709; with Δjen1 EV (T5, time 43), 0.1444 and 0.1533 and 0.1681 and 0.1884; in the series on Δjen1 EV (T6, time 45.5), 0.1453 and 0.1535 and 0.1657 and 0.1862. Further, the “growth curve reading, single replicate” value is 0.1464 and 0.1540 and 0.1668 and 0.1877 in the series on Δjen1 EV (T7, time 48); 0.0403 on MCT1 (F360C) (T0, time 0); 0.1093 and 0.1204 and 0.1196 and 0.1290 at MCT1 (F360C) (T1, time 19); 0.1288 and 0.1364 and 0.1335 at MCT1 (F360C) (T2, time 21); 0.1550 and 0.1804 and 0.1853 and 0.2001 on MCT1 (F360C) (T3, time 25); 0.1660 and 0.1913 and 0.2008 and 0.2152 on MCT1 (F360C) (T4, time 27.5). For the same molecule, the “growth curve reading, single replicate” value on MCT1 (F360C) (T5, time 43) was 0.1991 and 0.2285 and 0.2378 and 0.2578; on MCT1 (F360C) (T6, time 45.5), 0.2030 and 0.2318 and 0.2431 and 0.2629; on MCT1 (F360C) (T7, time 48), 0.2036 and 0.2334 and 0.2458 and 0.2644; on MCT1 (wildtype) (Δjen1 MCT1, T0, time 0), 0.0402; on MCT1 (wildtype) (Δjen1 MCT1, T1, time 19) it was 0.1316 and 0.1252 and 0.1281 and 0.1266; on MCT1 (wildtype) (Δjen1 MCT1, T2, time 21) it was 0.1442 and 0.1394 and 0.1417 and 0.1396. Moreover, the “growth curve reading, single replicate” value at MCT1 (wildtype) (Δjen1 MCT1, T3, time 25) is 0.1656 and 0.1622 and 0.1633 and 0.1608; on MCT1 (wildtype) (Δjen1 MCT1, T4, time 27.5), 0.1778 and 0.1729 and 0.1762; on MCT1 (wildtype) (Δjen1 MCT1, T5, time 43) it was 0.2083 and 0.2030 and 0.2026 and 0.2041; on MCT1 (wildtype) (Δjen1 MCT1, T6, time 45.5), 0.2171 and 0.2098 and 0.2095 and 0.2126; at MCT1 (wildtype) (Δjen1 MCT1, T7, time 48), 0.2154 and 0.2089 and 0.2128 and 0.2107. In addition, the “growth curve reading, mean of 4 replicates” value (“growth curve reading, mean” for short) in the series on Δjen1 EV (time 19) is reported as 0.1194; in the series on Δjen1 EV (time 21), 0.1435; with Δjen1 EV (time 25) it was 0.1449; in the series on Δjen1 EV (time 27.5), 0.1512; with Δjen1 EV (time 43) it was 0.1636; with Δjen1 EV (time 45.5) it was 0.1627. Also, the “growth curve reading, mean” value in the series with Δjen1 EV (time 48) turned out to be 0.1637; on MCT1 (F360C) (time 0) it was 0.0403; at MCT1 (F360C) (time 19), 0.1196; at MCT1 (F360C) (time 21) it was 0.1338; on MCT1 (F360C) (time 25), 0.1802; on MCT1 (F360C) (time 27.5) it was 0.1933. For the same molecule, the “growth curve reading, mean” value at MCT1 (F360C) (time 43) came to 0.2308; on MCT1 (F360C) (time 45.5) it was 0.2352; at MCT1 (F360C) (time 48), 0.2368; at MCT1 (wildtype) (Δjen1 MCT1, time 0), 0.0402; at MCT1 (wildtype) (Δjen1 MCT1, time 19), 0.1279; at MCT1 (wildtype) (Δjen1 MCT1, time 21) it was 0.1412. In addition, the “growth curve reading, mean” value on MCT1 (wildtype) (Δjen1 MCT1, time 25) was 0.1630; at MCT1 (wildtype) (Δjen1 MCT1, time 27.5), 0.1750; on MCT1 (wildtype) (Δjen1 MCT1, time 43) it was 0.2045; at MCT1 (wildtype) (Δjen1 MCT1, time 45.5), 0.2122; at MCT1 (wildtype) (Δjen1 MCT1, time 48), 0.2120. Also, the negative-log IC50 (pIC50) in the series on MCT1 (read-out: previously reported IC50 value) was 8.29. The “tolerability in phase-1 clinical trial” value in series [7] is on record as “relatively well tolerated”. The “growth in media with lactate as the sole carbon source” value on MCT1 (F360C) (MCT1 F360C, AZD3965 10 μM, 0.5% lactate (S5 Fig)) is on record as “inhibited growth”; at MCT1 (wildtype) (wildtype MCT1, AZD3965 10 μM, 0.5% lactate (S5 Fig)) it was “inhibited growth”.

As for `O=C(O)Cc1ccccc1Nc1c(Cl)cccc1Cl` [Diclofenac, reference compound], in the series with parent strain (SAWy518) [1], the OffScreen_percentage is recorded as 100.855 percentage, the Offscreen_18hr is listed as 0.8139, the Offscreen_24hr worked out at 0.8825 and the Offscreen_42hr is 0.9387. In the series on parent strain (SAWy518) [1], the Read_percentage was 100.855 percentage. The pIC50 with MCT1 (read-out: previously reported inhibition value for MCT1 (IC50)) is 5.85. The blood-plasma concentration in series [4] (150–200 mg daily) is 6.1 µM.

Source of the values: PMC11637378, “Optogenetic screening of MCT1 activity implicates a cluster of non-steroidal anti-inflammatory drugs (NSAIDs) as inhibitors of lactate transport” (PLOS ONE, 2024).
